SMILES strings stand for the structures. The source made the active and inactive calls. No rule for the calls is given here.

The target in one test is Regulator of G-protein signaling 8 (Homo sapiens) (UniProt P57771). The test can be described thus: compounds altering Galphao binding to RGS8 – biochemical, multiplex bead flow cytometry, dose response (AID 1869). The settings on record: bead-based flow cytometry RGS8-Galphao binding. A general note: In flow cytometry, cells or beads pass a laser one at a time.
Sequence of Regulator of G-protein signaling 8 (Homo sapiens) (P57771 whole entry, looked up): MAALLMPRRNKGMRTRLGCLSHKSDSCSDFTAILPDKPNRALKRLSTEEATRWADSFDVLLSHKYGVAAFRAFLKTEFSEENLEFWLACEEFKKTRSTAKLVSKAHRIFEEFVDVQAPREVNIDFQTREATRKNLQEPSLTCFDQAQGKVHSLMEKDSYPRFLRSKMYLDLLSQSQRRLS
In general, EC50 refers to the concentration giving half of the maximal effect. As to `O=C1CCCC2=C1C(c1cccs1)n1ncnc1N2` (stereo not drawn), the EC50 was > 30 µM (inactive).
On the same count and under the same terms, under `CCOC(=O)N=Nc1c(O)n(C)c2ccccc12` stands > 30 µM (inactive); under `NS(=O)(=O)c1ccc(N/N=C/c2ccc(O)c(O)c2O)c([N+](=O)[O-])c1`, 1.69 µM; under `CN(C)[C@@H]1C(=O)C(C(=O)NCN2CCCC2)=C(O)[C@@]2(O)C(=O)C3=C(O)c4c(O)cccc4[C@@](C)(O)C3CC12` (stereo partly drawn), 7.06 µM.
On the same count and under the same terms, the result for `CCOC(=O)C1=C(C)NC(C)=C(C(=O)OCCNC(=O)c2cccnc2)C1c1cccc([N+](=O)[O-])c1` (stereo not drawn) reads > 30 µM (inactive); that for `CCOC(=O)/C(C(=O)Nc1ccccc1Cl)=C1/NC(C)(C)Cc2ccccc21`, > 30 µM (inactive).
`COc1ccc(Br)cc1/C=N/Nc1cccc(C(=O)O)c1`: the EC50 was > 30 µM (inactive).
Regarding `O=c1[nH]c(=S)n(Cc2ccco2)c(O)c1C=NCc1cccs1`, the EC50 is > 30 µM (inactive).
Same read-out and setting: the result for `CC(C)Sc1nc2ccc(N3C(=O)C4CCCCC4C3=O)cc2s1` (stereo not drawn) reads > 30 µM (inactive).

The same test, now with this note: bead-based flow cytometry RGS8-Galphao binding; measured here: Ki for RGS8-Galphao binding.
A word on the Ki: it is a dissociation constant, usually derived from enzyme kinetics or from competition with a known ligand. A higher Ki goes with weaker binding. Compound `O=c1c2ccccc2sn1-c1cc(S(=O)(=O)N2CCOCC2)ccc1N1CCCC1` showed a Ki of 3.05 µM.
Same read-out and setting: the result for `NS(=O)(=O)c1ccc(N/N=C/c2ccc(O)c(O)c2O)c([N+](=O)[O-])c1` reads 1.4 µM.
As for `O=c1c2ccccc2sn1-c1cc(S(=O)(=O)N2CCOCC2)ccc1N1CCOCC1`, the Ki was 4.21 µM.
`CCN1/C(=C/C=C/C=C/c2sc3ccccc3[n+]2CC)Sc2ccccc21` showed a Ki of 4.71 µM.
Same read-out and setting: the result for `O=C(O[C@@H]1OC2COC(=O)c3cc(O)c(O)c(O)c3-c3c(cc(O)c(O)c3O)C(=O)O[C@@H]([C@H]1O)[C@@H]2O)c1cc(O)c(O)c(O)c1` reads 1.45 µM; that for `CCN=c1scc(C)n1/N=C/c1ccc(O)c(O)c1O`, 19.6 µM; that for `COCCCNC(=O)c1ccc2c3c(onc13)-c1ccccc1C2=O`, 3.52 µM.
`COc1ccc(C2=CC(=O)C=CC2=O)cc1` yielded a Ki of 6.01 µM.
`CN1CCN(C2=C(Cl)C(=O)C(c3cnc(N4CCCCC4)s3)=C(Cl)C2=O)CC1` showed a Ki of 0.11 µM.
Compound `O=C1C(Cl)=C(N2CCCCC2)C(=O)C(Cl)=C1c1cnc(N2CCCCC2)s1` had a Ki of 0.95 µM.
`O=C(Cc1csc(N2CCOCC2)n1)N/N=C/c1ccc(O)c(O)c1O` displayed a Ki of 13.8 µM.
The compound `Cc1ccc(-n2sc3ccccc3c2=O)cc1S(=O)(=O)N1CCCCC1` displayed an inhibition constant Ki of 9.95 µM.
`CC(NC(=O)c1sc2cc([N+](=O)[O-])ccc2c1Cl)C(C)(C)C` (stereo not drawn) showed a Ki of 1.63 µM.
On to `CN=c1scc(C)n1/N=C/c1ccc(O)c(O)c1O`, for which the Ki was found to be 7.21 µM.
As to `O=c1c2ccccc2sn1-c1ccccc1`, the Ki worked out at 5.06 µM.
As to `CN(C)[C@@H]1C(=O)C(C(=O)NCN2CCCC2)=C(O)[C@@]2(O)C(=O)C3=C(O)c4c(O)cccc4[C@@](C)(O)C3CC12` (stereo partly drawn), the Ki came out at 5.85 µM.
The compound `CCN(CC)S(=O)(=O)c1cccc(C(=O)N/N=C/c2ccc(O)c(O)c2O)c1` had a Ki of 3.77 µM.
For the compound `Cc1[nH]n(-c2ccccc2)c(=S)c1C=NCCCN=Cc1c(C)[nH]n(-c2ccccc2)c1=S`, the Ki was 4.25 µM.
`COc1ccccc1-n1c(-c2cc(-c3ccco3)[nH]n2)n[nH]c1=S` came in with a Ki of 6.97 µM.
The same measure, in the same setting: the result for `O=C1OCC2OC(O)C(O)C(O)C2OC(=O)c2cc(O)c(O)c(O)c2-c2c(O)c(O)c3oc(=O)c4c(c(O)c(O)c5oc(=O)c2c3c54)-c2c1cc(O)c(O)c2O` (stereo not drawn) reads 0.5 µM; that for `COc1ccc(OC)c(CCNC(=O)Cn2sc3nc(C)cc(C)c3c2=O)c1`, 3.85 µM.
Take `O=C(O)C[C@@H]1C(=O)O[C@@H]2C(COC(=O)c3cc(O)c(O)c(O)c3)O[C@@H](OC(=O)c3cc(O)c(O)c(O)c3)[C@@H](OC(=O)c3cc(O)c(O)c4c3[C@H]1[C@H](O)C(=O)O4)[C@H]2OC(=O)c1cc(O)c(O)c(O)c1` (stereo partly drawn): the Ki was 0.68 µM.
`O=c1c2ccccc2sn1-c1ccc(S(=O)(=O)N2CCCC2)cc1` returned a Ki of 8.61 µM.
Compound `O=C(COc1ccccc1C(=O)N/N=C\c1ccc(O)c(O)c1)N/N=C/c1ccc(O)c(O)c1` gave a Ki of 2.49 µM.
Regarding `Cc1cc(Cl)ccc1N=c1ssnc1Cl`, the Ki is 11.9 µM.
For the compound `CN(C)c1ncc(C2=C(Cl)C(=O)C(N3CCCC3)=C(Cl)C2=O)s1`, the Ki was determined as 1.11 µM.
The compound `CCC(=O)NC1=C(Cl)C(=O)C(NC(=O)CC)=C(Cl)C1=O` registered a Ki of 2.83 µM.
On the same count and under the same terms, under `Cc1[nH]n(-c2ccccc2)c(=S)c1C=Nc1cccc([N+](=O)[O-])c1` stands 1.65 µM; under `O=C(OCC1O[C@@H](OC(=O)c2cc(O)c(O)c(O)c2)[C@@H](OC(=O)c2cc(O)c(O)c(O)c2)[C@@H](OC(=O)c2cc(O)c(O)c(O)c2)[C@@H]1OC(=O)c1cc(O)c(O)c(O)c1)c1cc(O)c(O)c(O)c1` (stereo partly drawn), 1.05 µM.
Take `CC(=O)N(O)CCCCCNC(=O)CCC(=O)N(O)CCCCCNC(=O)CCC(=O)N(O)CCCCCN`: the Ki was found to be 1.89 µM.
As to `Cc1cc(C)c2c(=O)n(CC(=O)Nc3ccc(Cl)cc3)sc2n1`, the Ki worked out at 5.27 µM.
For `Nc1cccnc1Sc1ccc([N+](=O)[O-])cn1`, the Ki amounted to 13.7 µM.
In turn, `O=C(NCCCN1CCOCC1)c1sc2cc([N+](=O)[O-])ccc2c1Cl` showed a Ki of 2.16 µM.
Consider `Cc1ccc(NC(=O)Cn2sc3nc(C)cc(C)c3c2=O)c(Cl)c1`, for which the Ki is 11.7 µM.
The compound `O=[N+]([O-])c1ccc(Sc2cccc[n+]2[O-])c2nonc12` gave a Ki of 2.54 µM.
`Cc1ccccc1-n1sc2cc(F)ccc2c1=O` had a Ki of 9.64 µM.
Consider `CC1(C)OC(=O)C(=Cc2ccc(-c3ccc(S(N)(=O)=O)cc3)o2)C(=O)O1`, for which the Ki is 3.98 µM.
On the same count and under the same terms, under `Cc1cccc(N2CCN(C(=O)Cn3sc4nc(C)cc(C)c4c3=O)CC2C)c1` (stereo not drawn) stands 12.8 µM; under `CCOC(=O)c1sc(NC(=O)CSc2nnc(Cc3ccccc3)o2)c(C#N)c1C`, 5.55 µM; under `CCNc1ccc2noc3c2c1C(=O)c1ccccc1-3`, 20.3 µM.
Turning to `Cc1cc(C)c2c(=O)n(CC(=O)Nc3cccc(F)c3)sc2n1`, the Ki is 6.53 µM.
The compound `COC(=O)CCC(=O)Nc1sc(C)c(C)c1C(N)=O` came in with a Ki of 4.93 µM.
For the compound `CCc1c(C(=O)Nc2ccccc2)c(C)[nH]c(=S)c1C#N`, the Ki was 7.87 µM.
The same measure, in the same setting: under `Nc1c(C(=O)NCC2CCCO2)sc2nc3c(c(-c4ccco4)c12)CC/C3=C\c1ccco1` (stereo not drawn) stands 6.07 µM; under `CCOC(=O)C1CCCN(C(=O)Cn2sc3nc(C)cc(C)c3c2=O)C1` (stereo not drawn), 4.49 µM.
As to `CN(C)S(=O)(=O)c1cccc(-n2sc3ccccc3c2=O)c1`, the Ki was determined as 3.31 µM.
`O=C1CCC(=O)N(O)CCCCCNC(=O)CCC(=O)N(O)CCCCCNC(=O)CCC(=O)N(O)CCCCCN1` came in with a Ki of 1.7 µM.
The compound `CCC(=O)NC(c1ccc(C)cc1)c1cc([N+](=O)[O-])c2cccnc2c1O` (stereo not drawn) had a Ki of 13.7 µM.
`CCN1/C(=C/C(C)=C/c2sc3ccccc3[n+]2CC)Sc2ccccc21`: the Ki turned out to be 7.38 µM.

The values above are taken from PubChem BioAssay AID1869 (NMMLSC, 2009).
